17 molecules from article PMC8151276, “An Integrated Approach toward NanoBRET Tracers for Analysis of GPCR Ligand Engagement” (Molecules, 2021) can be followed below.

One experiment addresses T1, SSTR5 (Homo sapiens, UniProt P35346).
T1 construct: purchased Promega (in-house HiBiT-GPCR construct library, NanoBRET)
Description: NanoBRET screen HiBiT-SSTR5 in HEK293. Format: binding. The procedure:
(§1) Each tracer candidate was screened across the entire library of HiBiT-GPCR constructs using NanoBRET as the detection modality. As depicted in Figure 4A, the specificity of interactions was evaluated through decrease in BRET due to competitive displacement of a bound tracer by excess parental compound. Each tracer was analyzed for binding to each HiBiT-GPCR fusion in the absence and in the presence of competing parental compound. Briefly, HEK293 cells were transfected with HiBiT-GPCR constructs diluted into promoterless DNA to reduce expression and maximize translocation to the cell surface. Each tracer candidate was then screened at concentrations of 1 μM and 0.1 μM across cells expressing these fusions. Cells were treated for 1.5 h with tracer either alone or in the presence of 20 μM competing parental compound (i.e., control). BRET was measured upon addition of purified LgBiT and subsequent complementation with HiBiT genetically fused to a GPCR. The specificity of interactions was assessed through a decrease in BRET signal due to competitive displacement of the bound tracer. To further gauge the robustness of these interactions, the fold response over the control (i.e., BRETtracer/BRETcontrol) was calculated. We chose a 1.5-fold response, which translates to ≥7-fold signal over noise as the minimal threshold required to score an interaction as positive. […]. Below we highlight the screening results obtained for our exemplary fluorescent tracers based on Clozapine, Amitriptyline and AZD1283.
(§2) HiBiT-GPCR DNA constructs were diluted in 10 mM Tris pH 8 to a final concentration of 0.01 μg/μL, arrayed in 96-well plates and stored at −20 °C. For transfection, HEK293 cells were suspended in Opti-MEM (without phenol red) supplemented with 2% fetal bovine serum (Seradigm) and 100 units/mL penicillin–streptomycin (Gibco) at a final concentration of 220,000 cells/mL and dispensed into white 96-well plates at 90 μL/well. Subsequent transfections and screens were carried using an Agilent Bravo Automated Liquid Handling Platform. First, the 96-well HiBiT DNA arrays were diluted 25-fold in Opti-MEM (without serum or phenol red) to a final concentration of 0.0004 μg/μL and 20 μL of the diluted DNAs were transferred into new 96-well plates. Next, promoterless carrier DNA (1 μg/μL) was diluted 25-fold (0.04 μg/μL) and then dispensed into the diluted arrays at 20 μL/well. Following brief mixing, Viafect transfection reagent (Promega) diluted 16-fold into Opti-MEM was dispensed into the plates at 40 μL/well. After mixing by pipetting, plates were incubated for 10 min on the pipetting station deck. The DNA-transfection reagent complexes were then added to plates containing cells. To facilitate the screen, 10 μL of DNA-transfection reagent complexes were added in duplicates to the top 4 and bottom 4 rows, resulting in two identical 48-well arrays per plate. Plates with transfected cells were incubated for 18–20 h at 37 °C/5% CO2. A screen of each tracer across the entire library using two different concentrations requires duplicate plates of transfected cells. Depending on the number of tracers being screened, transfections can be scaled up using the same ratios. The next day, for each tracer, four 20× screening solutions in tracer dilution buffer (Promega) were prepared: two duplicates at final concentration of 20 μM and two duplicates at a final concentration of 2 μM. A competing unmodified compound was added to one of each duplicate at a final concentration of 400 μM. The four resulting solutions were diluted 4-fold in Opti-MEM without serum or phenol red to generate 5× solutions (5 µM and 0.5 µM tracer +/− 100 μM competing compound). To screen the library, a BioTek MultiFlo FX liquid dispenser was used to dispense 22.5 µL of tracer solution to the top 4 rows and 22.5 µL tracer + competing compound solution to the 4 bottom rows. Plates were briefly mixed on an orbital shaker and incubated for 1.5 h at room temperature. […]
Background: In BRET a luciferase serves as donor, and the signal depends on an acceptor being close.

Another experiment has as its target T2, GALR3 (Homo sapiens, UniProt O60755).
T2 construct: purchased Promega (in-house HiBiT-GPCR construct library, NanoBRET)
T2 sequence (O60755 1-368): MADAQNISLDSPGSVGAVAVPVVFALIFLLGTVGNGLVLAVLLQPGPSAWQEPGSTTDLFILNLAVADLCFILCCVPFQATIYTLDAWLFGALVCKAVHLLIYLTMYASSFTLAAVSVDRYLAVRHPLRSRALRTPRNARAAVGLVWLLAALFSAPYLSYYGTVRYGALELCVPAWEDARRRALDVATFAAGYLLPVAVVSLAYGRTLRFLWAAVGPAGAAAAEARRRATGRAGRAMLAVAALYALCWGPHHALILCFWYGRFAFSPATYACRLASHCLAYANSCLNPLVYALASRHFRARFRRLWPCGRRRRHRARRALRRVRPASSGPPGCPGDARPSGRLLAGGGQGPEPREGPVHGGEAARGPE
Description: NanoBRET screen HiBiT-GALR3 in HEK293. The format is binding. The procedure: as §1, §2

Setting [1] is: tracer at 0.1μM, listed as amitriptyline-b-2-NB590.

T1 sequence (P35346 whole entry): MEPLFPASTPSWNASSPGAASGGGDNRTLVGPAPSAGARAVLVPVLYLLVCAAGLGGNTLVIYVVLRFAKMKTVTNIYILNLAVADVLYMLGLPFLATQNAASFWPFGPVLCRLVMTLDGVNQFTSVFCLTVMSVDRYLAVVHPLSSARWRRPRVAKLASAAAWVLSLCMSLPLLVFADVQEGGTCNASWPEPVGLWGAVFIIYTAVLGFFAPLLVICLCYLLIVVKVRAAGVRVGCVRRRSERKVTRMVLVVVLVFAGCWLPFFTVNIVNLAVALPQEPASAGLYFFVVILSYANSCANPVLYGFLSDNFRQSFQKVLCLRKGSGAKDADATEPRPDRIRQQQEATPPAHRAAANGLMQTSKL

As to `COc1ccc2c(n1)c(CCNC(C)=O)cn2CCNC(=O)CCc1ccc2n1[B-](F)(F)[N+]1=C(c3ccc[nH]3)C=CC1=C2` [Azamelatonin-1-NB590], the “NanoBRET Fold Response” value on SSTR5 (0.1μM tracer) worked out at 0.82; on SSTR5 (1μM tracer), 0.99; at GALR3 (0.1μM tracer) it was 0.81; on GALR3 (1μM tracer), 1.05.

On to `CC(C)N(CC[C@H](c1ccccc1)c1cc(CCNC(=O)c2ccc(CNC(=O)CCc3ccc4n3[B-](F)(F)[N+]3=C(c5ccc[nH]5)C=CC3=C4)cc2)ccc1O)C(C)C` [Tolterodine-BZ-NB590], for which the “NanoBRET Fold Response” value at SSTR5 (SSTR5, tracer 0.1μM) amounted to 1.08; at SSTR5 (SSTR5, tracer 1μM) it was 1.04; on GALR3 (GALR3, tracer 0.1μM), 1.09; on GALR3 (GALR3, tracer 1μM), 1.00.

With `O=C(CCc1ccc2n1[B-](F)(F)[N+]1=C(c3ccc[nH]3)C=CC1=C2)NCCOCCOCCNC(=O)OCCOCCN1CCN(C2=Nc3ccccc3Sc3ccccc32)CC1` [Quetiapine-a-2-NB590], the “NanoBRET Fold Response” value at SSTR5 (SSTR5, tracer 0.1μM) was found to be 1.03; at SSTR5 (SSTR5, tracer 1μM), 0.83; at GALR3 (GALR3, tracer 0.1μM) it was 1.02; on GALR3 (GALR3, tracer 1μM), 0.73.

For the molecule `Cc1cc2c(s1)Nc1ccccc1N=C2N1CCN(CCCNC(=O)CCOCCOCCOCCOCCNC(=O)CCc2ccc3n2[B-](F)(F)[N+]2=C(c4ccc[nH]4)C=CC2=C3)CC1` [Olanzapine-a-2-NB590], the “NanoBRET Fold Response” value on SSTR5 (SSTR5, tracer 0.1μM) worked out at 1.01; at SSTR5 (SSTR5, tracer 1μM), 1.02; at GALR3 (GALR3, tracer 0.1μM) it was 1.12; at GALR3 (GALR3, tracer 1μM), 0.87.

Regarding `O=C(CCc1ccc2n1[B-](F)(F)[N+]1=C(c3ccc[nH]3)C=CC1=C2)NCc1ccc(C(=O)NCCOCCOCCNCC(O)COc2cccc3ccccc23)cc1` (centres unmarked) [Propranolol-3-NB590], the “NanoBRET Fold Response” value on SSTR5 (SSTR5, 0.1μM) is reported as 1.01; at SSTR5 (SSTR5, 1μM), 1.02; on GALR3 (GALR3, 0.1μM), 1.05; at GALR3 (GALR3, 1μM), 0.91.

Consider `CN1CCN(C2=Nc3cc(Cl)ccc3N(CC(=O)NCCOCCOCCOCCOCCNC(=O)CCc3ccc4n3[B-](F)(F)[N+]3=C(c5ccc[nH]5)C=CC3=C4)c3ccccc32)CC1` [Clozapine-c-2-NB590], for which the “NanoBRET Fold Response” value on SSTR5 (SSTR5, 0.1μM tracer) is recorded as 1.01; at SSTR5 (SSTR5, 1μM tracer) it was 0.99; at GALR3 (GALR3, 0.1μM tracer), 1.01; on GALR3 (GALR3, 1μM tracer), 1.04.

For the molecule `O=C(CCc1ccc2n1[B-](F)(F)[N+]1=C(c3ccc[nH]3)C=CC1=C2)NCc1ccc(C(=O)NCCOCCC(=O)N[C@@H]2CC[C@@]3(O)[C@H]4Cc5ccc(O)c6c5[C@@]3(CCN4CC3CC3)[C@H]2O6)cc1` [Naltrexone-3-NB590], the “NanoBRET Fold Response” value was determined as 0.96 on SSTR5 (SSTR5, tracer 0.1μM); 0.96 on SSTR5 (SSTR5, tracer 1μM); 1.03 on GALR3 (GALR3, tracer 0.1μM); 1.01 on GALR3 (GALR3, tracer 1μM).

Consider `CC(C)N(CC[C@H](c1ccccc1)c1cc(CCNC(=O)CCOCCOCCOCCOCCNC(=O)CCc2ccc3n2[B-](F)(F)[N+]2=C(c4ccc[nH]4)C=CC2=C3)ccc1O)C(C)C` [Tolterodine-2-NB590], for which the “NanoBRET Fold Response” value at SSTR5 (SSTR5, tracer 0.1μM) was 0.93; at SSTR5 (SSTR5, tracer 1μM), 1.04; at GALR3 (GALR3, tracer 0.1μM), 0.76; on GALR3 (GALR3, tracer 1μM) it was 0.78.

As for `Cc1nc2n(c(=O)c1CCN1CCC(c3noc4cc(F)ccc34)CC1)CCCC2OC(=O)NCCOCCOCCOCCOCCNC(=O)CCc1ccc2n1[B-](F)(F)[N+]1=C(c3ccc[nH]3)C=CC1=C2` (centres unmarked) [Risperidone-2-NB590], the “NanoBRET Fold Response” value came out at 1.01 at SSTR5 (SSTR5, tracer 0.1μM); 1.02 on SSTR5 (SSTR5, tracer 1μM); 0.90 at GALR3 (GALR3, tracer 0.1μM); 0.94 on GALR3 (GALR3, tracer 1μM).

Turning to `O=C(CCOCCOCCOCCOCCNC(=O)CCc1ccc2n1[B-](F)(F)[N+]1=C(c3ccc[nH]3)C=CC1=C2)NCCCN1CCN(C2=Nc3cc(Cl)ccc3Nc3ccccc32)CC1` [Clozapine-a-2-NB590], the “NanoBRET Fold Response” value at SSTR5 (SSTR5, 0.1μM tracer) turned out to be 0.97; on SSTR5 (SSTR5, 1μM tracer), 1.00; on GALR3 (GALR3, 0.1μM tracer), 1.02; at GALR3 (GALR3, 1μM tracer), 1.13.

Turning to `COc1ccc2[nH]c(-c3ccc(CNC(=O)CCOCCOCCOCCOCCNC(=O)CCc4ccc5n4[B-](F)(F)[N+]4=C(c6ccc[nH]6)C=CC4=C5)cc3)c(CCNC(C)=O)c2n1` [AzomelatoninICO9-2-NB590], the “NanoBRET Fold Response” value at SSTR5 (0.1μM tracer) worked out at 1.01; on SSTR5 (1μM tracer) it was 1.01; at GALR3 (0.1μM tracer) it was 1.06; on GALR3 (1μM tracer) it was 1.08.

Consider `CN1CCN(C2=Nc3cc(Cl)ccc3Nc3ccc(CNC(=O)CCOCCOCCOCCOCCNC(=O)CCc4ccc5n4[B-](F)(F)[N+]4=C(c6ccc[nH]6)C=CC4=C5)cc32)CC1` [Clozapine-b-2-NB590], for which the “NanoBRET Fold Response” value was 1.03 at SSTR5 (SSTR5, 0.1μM tracer); 1.00 on SSTR5 (SSTR5, 1μM tracer); 0.93 at GALR3 (GALR3, 0.1μM tracer); 0.91 at GALR3 (GALR3, 1μM tracer).

For `COc1ccccc1N1CCN(CCCCN2C(=O)c3ccc(CNC(=O)CCOCCNC(=O)c4ccc(CNC(=O)CCc5ccc6n5[B-](F)(F)[N+]5=C(c7ccc[nH]7)C=CC5=C6)cc4)cc3C2=O)CC1` [NAN-190-3-NB590], the “NanoBRET Fold Response” value at SSTR5 (SSTR5, tracer 0.1μM) came to 1.02; on SSTR5 (SSTR5, tracer 1μM), 1.03; on GALR3 (GALR3, tracer 0.1μM), 0.97; at GALR3 (GALR3, tracer 1μM), 0.92.

Take `N#CN=C(NCCCOc1cccc(CN2CCCCC2)c1)NCCNC(=O)CCOCCOCCOCCOCCNC(=O)CCc1ccc2n1[B-](F)(F)[N+]1=C(c3ccc[nH]3)C=CC1=C2` [Aminopotentidine-2-NB590]: the “NanoBRET Fold Response” value is on record as 0.97 on SSTR5 (SSTR5, tracer 0.1μM); 1.00 on SSTR5 (SSTR5, tracer 1μM); 1.09 on GALR3 (GALR3, tracer 0.1μM); 1.01 at GALR3 (GALR3, tracer 1μM).

Consider `CN(C)CCC=C1c2ccccc2CCc2ccc(C(=O)NCCNC(=O)CCOCCOCCOCCOCCNC(=O)CCc3ccc4n3[B-](F)(F)[N+]3=C(c5ccc[nH]5)C=CC3=C4)cc21` [Amitriptyline-b-2-NB590], for which the “NanoBRET Fold Response” value on SSTR5 (setting [1]) stood at 0.96; at SSTR5 (tracer at 1μM) it was 0.97; on GALR3 (setting [1]) it was 1.46; at GALR3 (tracer at 1μM, listed as amitriptyline-b-2-NB590) it was 0.95.

`COc1ccccc1N1CCN(CCCCN2C(=O)c3ccc(CNC(=O)CCOCCOCCOCCOCCNC(=O)CCc4ccc5n4[B-](F)(F)[N+]4=C(c6ccc[nH]6)C=CC4=C5)cc3C2=O)CC1` [NAN-190-2-NB590]: the “NanoBRET Fold Response” value at SSTR5 (SSTR5, tracer 0.1μM) worked out at 0.98; on SSTR5 (SSTR5, tracer 1μM), 1.04; on GALR3 (GALR3, tracer 0.1μM), 0.97; on GALR3 (GALR3, tracer 1μM), 1.10.

Consider `O=C(CCOCCOCCOCCOCCNC(=O)CCc1ccc2n1[B-](F)(F)[N+]1=C(c3ccc[nH]3)C=CC1=C2)NCCCN1CCN(C2=Nc3ccccc3Oc3ccc(Cl)cc32)CC1` [Loxapine-a-2-NB590], for which the “NanoBRET Fold Response” value at SSTR5 (SSTR5, tracer 0.1μM) is given as 1.10; at SSTR5 (SSTR5, tracer 1μM), 1.15; on GALR3 (GALR3, tracer 0.1μM), 0.95; at GALR3 (GALR3, tracer 1μM) it was 1.10.
